# Tests used:
# Experiment in all cases: combination Emax (second highest fraction inhibited in the dose matrix, 72 h); higher = more inhibition; extreme values may be limits of the assay
# [1] = test system: CAL-62 (Thyroid Gland Carcinoma)
# Outline: (§1)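 After 24 hours at 37°C and 5% CO2 in 1536-well plates, cells in DMEM/F12 or RPMI plus 10% FBS received two-drug dose matrices for 72 hours. Viability came from CellTiter-Glo 2.0 luminescence and was scaled as inhibition, anchored at 0 by vehicle wells and at 1 by blank wells. Combination Emax is taken as the second-highest inhibition in the matrix, and Bliss excess as the observed combination effect less EA + EB − EA·EB, with EA and EB the single-agent effects.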
# [2] = test system: HSC-39 (Gastric Carcinoma)
# Outline: as §1
# IST-MES1 (Mesothelioma) = test system: IST-MES1 (Mesothelioma)
# Outline: as §1
# [3] = test system: L-1236 (Hodgkin's Lymphoma)
# Outline: as §1
# [4] = test system: LK-2 (Squamous Cell Lung Carcinoma)
# Outline: as §1
# [5] = test system: MFE-280 (Endometrial Carcinoma)
# Outline: as §1
# [6] = test system: MKN45 (Gastric Carcinoma)
# Outline: as §1
# NB12 (Neuroblastoma) = test system: NB12 (Neuroblastoma)
# Outline: as §1
# [7] = test system: NCI-H2342 (Lung Adenocarcinoma)
# Outline: as §1
# [8] = test system: OVMIU (Ovarian Carcinoma)
# Outline: as §1
# [9] = test system: PANC-03-27 (Pancreatic Carcinoma)
# Outline: as §1
# [10] = test system: PC-3_[JPC-3] (Lung Adenocarcinoma)
# Outline: as §1
# [11] = test system: PSN1 (Pancreatic Carcinoma)
# Outline: as §1
# [12] = test system: REH (B-Lymphoblastic Leukemia)
# Outline: as §1
# [13] = test system: RKN (Other Solid Carcinomas)
# Outline: as §1
# [14] = test system: SHP-77 (Small Cell Lung Carcinoma)
# Outline: as §1
# SK-MEL-2 (Melanoma) = test system: SK-MEL-2 (Melanoma)
# Outline: as §1
# [15] = test system: SK-PN-DW (Other Solid Carcinomas)
# Outline: as §1
# [16] = test system: TE-8 (Esophageal Squamous Cell Carcinoma)
# Outline: as §1
# [17] = test system: VAL (B-Cell Non-Hodgkin's Lymphoma)
# Outline: as §1
compound,measurement,setting,value
"N#Cc1cnc(Nc2cc(NC[C@H]3CNCCO3)c(C(F)(F)F)cn2)cn1 [SRA737] + CCc1c2c(nc3ccc(O)cc13)-c1cc3c(c(=O)n1C2)COC(=O)[C@]3(O)CC [SN-38] (first compound max 10 µM, 7x7, partner max 0.3 µM)",combination Emax,[1],0.865
same,combination Emax,[2],1
same,combination Emax,IST-MES1 (Mesothelioma),0.759
same,combination Emax,[3],0.944
same,combination Emax,[4],0.906
same,combination Emax,[5],0.88
same,combination Emax,[6],0.868
same,combination Emax,NB12 (Neuroblastoma),0.705
same,combination Emax,[7],0.74
same,combination Emax,[8],0.404
same,combination Emax,[9],0.844
same,combination Emax,[10],0.72
same,combination Emax,[11],0.908
same,combination Emax,[12],0.991
same,combination Emax,[13],0.858
same,combination Emax,[14],0.912
same,combination Emax,SK-MEL-2 (Melanoma),0.693
same,combination Emax,[15],0.927
same,combination Emax,[16],0.838
same,combination Emax,[17],0.947
"C=CCn1c(=O)c2cnc(Nc3ccc(N4CCN(C)CC4)cc3)nc2n1-c1cccc(C(C)(C)O)n1 [AZD1775] + Nc1ccn([C@@H]2O[C@H](CO)[C@@H](O)C2(F)F)c(=O)n1 [Gemcitabine] (first compound max 1 µM, partner max 0.3 µM)",combination Emax,[1],0.826
same,combination Emax,[2],1
same,combination Emax,IST-MES1 (Mesothelioma),0.831
same,combination Emax,[3],0.954
same,combination Emax,[4],0.982
same,combination Emax,[5],0.655
same,combination Emax,[6],0.753
same,combination Emax,NB12 (Neuroblastoma),0.806
same,combination Emax,[7],0.784
same,combination Emax,[8],0.608
same,combination Emax,[9],0.703
same,combination Emax,[10],0.574
same,combination Emax,[11],0.832
same,combination Emax,[12],0.999
same,combination Emax,[13],0.633
same,combination Emax,[14],0.676
same,combination Emax,SK-MEL-2 (Melanoma),0.507
same,combination Emax,[15],0.864
same,combination Emax,[16],0.806
same,combination Emax,[17],0.794
"C[C@@H](Nc1cc(F)cc(F)c1)c1cc(C(=O)N(C)C)cc2c(=O)cc(N3CCOCC3)oc12 [AZD8186] + C1CN(CCC1(C(=O)N[C@@H](CCO)C2=CC=C(C=C2)Cl)N)C3=NC=NC4=C3C=CN4 [AZD5363] (first compound max 10 µM, 7x7, partner max 10 µM)",combination Emax,[1],0.165
same,combination Emax,[2],0.603
same,combination Emax,IST-MES1 (Mesothelioma),0.267
same,combination Emax,[3],0.722
same,combination Emax,[4],0.177
same,combination Emax,[5],0.546
same,combination Emax,[6],0.455
same,combination Emax,NB12 (Neuroblastoma),0.419
same,combination Emax,[7],0.286
same,combination Emax,[8],0.509
same,combination Emax,[9],0.315
same,combination Emax,[10],0.295
same,combination Emax,[11],0.357
same,combination Emax,[12],0.452
same,combination Emax,[13],0.328
same,combination Emax,[14],0.275
same,combination Emax,SK-MEL-2 (Melanoma),0.113
same,combination Emax,[15],0.575
same,combination Emax,[16],0.455
same,combination Emax,[17],0.555
"O=C(c1cc(Cc2n[nH]c(=O)c3ccccc23)ccc1F)N1CCN(C(=O)C2CC2)CC1 [Olaparib] + CN(CC[C@H](CSC1=CC=CC=C1)NC2=C(C=C(C=C2)S(=O)(=O)NC(=O)C3=CC=C(C=C3)N4CCC(CC4)[C@H](C5=CC=CC=C5C6=CC=C(C=C6)Cl)O)S(=O)(=O)C(F)(F)F)CCO [AZD4320] (first compound max 10 µM, 7x7, partner max 1 µM)",combination Emax,[1],0.16
same,combination Emax,[2],0.268
same,combination Emax,IST-MES1 (Mesothelioma),0.211
same,combination Emax,[3],0.994
same,combination Emax,[4],0.573
same,combination Emax,[5],0.598
same,combination Emax,[6],0.164
same,combination Emax,NB12 (Neuroblastoma),0.997
same,combination Emax,[7],0.178
same,combination Emax,[8],0.22
same,combination Emax,[9],0.266
same,combination Emax,[10],0.138
same,combination Emax,[11],0.21
same,combination Emax,[12],0.986
same,combination Emax,[13],0.149
same,combination Emax,[14],0.315
same,combination Emax,SK-MEL-2 (Melanoma),0.234
same,combination Emax,[15],0.378
same,combination Emax,[16],0.175
same,combination Emax,[17],1
"CN(CCO)CC[C@H](CSc1ccccc1)Nc1ccc(S(=O)(=O)NC(=O)c2ccc(N3CCC([C@@H](O)c4ccccc4-c4ccc(Cl)cc4)CC3)cc2)cc1S(=O)(=O)C(F)(F)F [AZD4320] + CC(=O)O[C@H]1C(=O)[C@@]2(C)[C@H]([C@H](OC(=O)c3ccccc3)[C@]3(O)C[C@H](OC(=O)[C@H](O)[C@@H](NC(=O)c4ccccc4)c4ccccc4)C(C)=C1C3(C)C)[C@]1(OC(C)=O)CO[C@@H]1C[C@@H]2O [Paclitaxel] (first compound max 1 µM, 7x7, partner max 3 µM)",combination Emax,[1],0.951
same,combination Emax,[2],1
same,combination Emax,IST-MES1 (Mesothelioma),0.873
same,combination Emax,[3],1
same,combination Emax,[4],1
same,combination Emax,[5],0.979
same,combination Emax,[6],0.751
same,combination Emax,NB12 (Neuroblastoma),1
same,combination Emax,[7],0.977
same,combination Emax,[8],0.929
same,combination Emax,[9],0.885
same,combination Emax,[10],0.76
same,combination Emax,[11],0.942
same,combination Emax,[12],1
same,combination Emax,[13],0.994
same,combination Emax,[14],1
same,combination Emax,SK-MEL-2 (Melanoma),0.915
same,combination Emax,[15],0.918
same,combination Emax,[16],0.967
same,combination Emax,[17],1
"Cc1cc2ncnn2cc1Nc1ncc2c(n1)n(C1CCOCC1)c(=O)n2C [AZD7648] + COc1cc([C@@H]2c3cc4c(cc3[C@@H](O[C@@H]3O[C@@H]5CO[C@@H](C)O[C@H]5[C@H](O)[C@H]3O)[C@H]3COC(=O)[C@H]23)OCO4)cc(OC)c1O [Etoposide] (first compound max 10 µM, 7x7, partner max 10 µM)",combination Emax,[1],0.829
same,combination Emax,[2],0.854
same,combination Emax,IST-MES1 (Mesothelioma),0.685
same,combination Emax,[3],0.845
same,combination Emax,[4],0.784
same,combination Emax,[5],0.889
same,combination Emax,[6],0.582
same,combination Emax,NB12 (Neuroblastoma),0.695
same,combination Emax,[7],0.569
same,combination Emax,[8],0.498
same,combination Emax,[9],0.619
same,combination Emax,[10],0.415
same,combination Emax,[11],0.834
same,combination Emax,[12],0.976
same,combination Emax,[13],0.598
same,combination Emax,[14],0.546
same,combination Emax,SK-MEL-2 (Melanoma),0.166
same,combination Emax,[15],0.918
same,combination Emax,[16],0.602
same,combination Emax,[17],0.905
